Measurements as given in patent US20030087906A1, “NITROGEN SUBSTITUTED BIARYL PURINE DERIVATIVES AS POTENT ANTIPROLIFERATIVE AGENTS” (priority 2001, published 2003).

Legend:
MDA-MB-435 = test: NCI 60-cell line growth inhibition assay; assay type: cell-based; details: Homo sapiens; Breast, MDA-MB-435
SK-MEL-2 = test: NCI 60-cell line growth inhibition assay; assay type: cell-based; details: Homo sapiens; Melanoma, SK-MEL-2
LOX IMVI = test: NCI 60-cell line growth inhibition assay; assay type: cell-based; details: Homo sapiens; Melanoma, LOX IMVI
KM12 = test: NCI 60-cell line growth inhibition assay; assay type: cell-based; details: Homo sapiens; Colon, KM12
HCC-2998 = test: NCI 60-cell line growth inhibition assay; assay type: cell-based; details: Homo sapiens; Colon, HCC-2998
SNB-19 = test: NCI 60-cell line growth inhibition assay; assay type: cell-based; details: Homo sapiens; CNS, SNB-19
A549/ATCC = test: NCI 60-cell line growth inhibition assay; assay type: cell-based; details: Homo sapiens; Non-Small Cell Lung, A549/ATCC
ACHN = test: NCI 60-cell line growth inhibition assay; assay type: cell-based; details: Homo sapiens; Renal, ACHN
MDA-MB-231/ATCC = test: NCI 60-cell line growth inhibition assay; assay type: cell-based; details: Homo sapiens; Breast, MDA-MB-231/ATCC
SF-295 = test: NCI 60-cell line growth inhibition assay; assay type: cell-based; details: Homo sapiens; CNS, SF-295
IGROV1 = test: NCI 60-cell line growth inhibition assay; assay type: cell-based; details: Homo sapiens, IGROV-1; Ovarian, IGROV1
NCI-H322M = test: NCI 60-cell line growth inhibition assay; assay type: cell-based; details: Homo sapiens; Non-Small Cell Lung, NCI-H322M
SR = test: NCI 60-cell line growth inhibition assay; assay type: cell-based; details: Homo sapiens; Leukemia, SR
SF-268 = test: NCI 60-cell line growth inhibition assay; assay type: cell-based; details: Homo sapiens; CNS, SF-268
UACC-62 = test: NCI 60-cell line growth inhibition assay; assay type: cell-based; details: Homo sapiens; Melanoma, UACC-62
OVCAR-3 = test: NCI 60-cell line growth inhibition assay; assay type: cell-based; details: Homo sapiens; Ovarian, OVCAR-3
EKVX = test: NCI 60-cell line growth inhibition assay; assay type: cell-based; details: Homo sapiens; Non-Small Cell Lung, EKVX
PC-3 = test: NCI 60-cell line growth inhibition assay; assay type: cell-based; details: Homo sapiens; Prostate, PC-3
SK-MEL-28 = test: NCI 60-cell line growth inhibition assay; assay type: cell-based; details: Homo sapiens; Melanoma, SK-MEL-28
K-562 = test: NCI 60-cell line growth inhibition assay; assay type: cell-based; details: Homo sapiens, K562; Leukemia, K-562
SW-620 = test: NCI 60-cell line growth inhibition assay; assay type: cell-based; details: Homo sapiens; Colon, SW-620
CCRF-CEM = test: NCI 60-cell line growth inhibition assay; assay type: cell-based; details: Homo sapiens; Leukemia, CCRF-CEM
HT29 = test: NCI 60-cell line growth inhibition assay; assay type: cell-based; details: Homo sapiens, HT-29; Colon, HT29
OVCAR-5 = test: NCI 60-cell line growth inhibition assay; assay type: cell-based; details: Homo sapiens; Ovarian, OVCAR-5
U251 = test: NCI 60-cell line growth inhibition assay; assay type: cell-based; details: Homo sapiens, U-251; CNS, U251
MCF7 = test: NCI 60-cell line growth inhibition assay; assay type: cell-based; details: Homo sapiens; Breast, MCF7
NCI-H460 = test: NCI 60-cell line growth inhibition assay; assay type: cell-based; details: Homo sapiens; Non-Small Cell Lung, NCI-H460
M14 = test: NCI 60-cell line growth inhibition assay; assay type: cell-based; details: Homo sapiens; Melanoma, M14
MOLT-4 = test: NCI 60-cell line growth inhibition assay; assay type: cell-based; details: Homo sapiens; Leukemia, MOLT-4
T-47D = test: NCI 60-cell line growth inhibition assay; assay type: cell-based; details: Homo sapiens, T47D; Breast, T-47D
HeLa S-3 cells = test: Inhibition of cell growth of HeLa cells (SRB); assay type: cell-based, human; details: Homo sapiens, HeLa S3, 48 h, 2 days of treatment, replicate experiments
UACC-257 = test: NCI 60-cell line growth inhibition assay; assay type: cell-based; details: Homo sapiens; Melanoma, UACC-257
SK-OV-3 = test: NCI 60-cell line growth inhibition assay; assay type: cell-based; details: Homo sapiens; Ovarian, SK-OV-3
TK-10 = test: NCI 60-cell line growth inhibition assay; assay type: cell-based; details: Homo sapiens; Renal, TK-10
HCT-15 = test: NCI 60-cell line growth inhibition assay; assay type: cell-based; details: Homo sapiens; Colon, HCT-15
[1] = MTD (NCI in vivo evaluation, Table 8); details: mouse
CAKI-1 = test: NCI 60-cell line growth inhibition assay; assay type: cell-based; details: Homo sapiens; Renal, CAKI-1
UO-31 = test: NCI 60-cell line growth inhibition assay; assay type: cell-based; details: Homo sapiens; Renal, UO-31
COLO 205 = test: NCI 60-cell line growth inhibition assay; assay type: cell-based; details: Homo sapiens; Colon, COLO 205
[2] = system: Tumor Cells in Hollow Fibers; test: NCI Hollow Fiber Assay (in vivo evaluation)
HL-60(TB) = test: NCI 60-cell line growth inhibition assay; assay type: cell-based; details: Homo sapiens; Leukemia, HL-60(TB)
RXF 393 = test: NCI 60-cell line growth inhibition assay; assay type: cell-based; details: Homo sapiens; Renal, RXF 393
MALME-3M = test: NCI 60-cell line growth inhibition assay; assay type: cell-based; details: Homo sapiens; Melanoma, MALME-3M
OVCAR-8 = test: NCI 60-cell line growth inhibition assay; assay type: cell-based; details: Homo sapiens; Ovarian, OVCAR-8

Compound `CC[C@H](CO)Nc1nc(NCc2ccc(-c3cccc(C(F)(F)F)c3)cc2)c2ncn(C(C)C)c2n1` [Compound 38] has a GI50 (MDA-MB-435) of 0.05 µM, a GI50 (SK-MEL-2) of 2 µM and a GI50 (LOX IMVI) of 0.4 µM. It also gave a GI50 (KM12) of 0.16 µM, a GI50 (HCC-2998) of 7.94 µM and a GI50 (SNB-19) of 0.5 µM. The GI50 (A549/ATCC) was 0.13 µM, the GI50 (ACHN) was 2 µM and the GI50 (MDA-MB-231/ATCC) was 0.06 µM. It also gave a GI50 (SF-295) of 0.5 µM, a GI50 (IGROV1) of 0.16 µM and a GI50 (NCI-H322M) of 0.4 µM. It also gave a GI50 (SR) of 3.98 µM, a GI50 (SF-268) of 0.2 µM and a GI50 (UACC-62) of 1 µM. The GI50 (OVCAR-3) was 1 µM, the GI50 (EKVX) was 0.2 µM and the GI50 (PC-3) was 0.4 µM. The GI50 (SK-MEL-28) was 0.03 µM, the GI50 (K-562) was 0.25 µM and the GI50 (SW-620) was 0.03 µM. It also gave a GI50 (CCRF-CEM) of 0.2 µM, a GI50 (HT29) of 0.25 µM and a GI50 (OVCAR-5) of 0.4 µM. The GI50 (U251) was 0.2 µM, the GI50 (MCF7) was 0.2 µM and the GI50 (NCI-H460) was 3.16 µM. The GI50 (M14) was 0.05 µM, the GI50 (MOLT-4) was 0.25 µM and the GI50 (T-47D) was 0.25 µM. The GI50 (HeLa S-3 cells) was 0.6 µM, the GI50 (UACC-257) was 0.5 µM and the GI50 (SK-OV-3) was 3.98 µM. For the same compound, the GI50 (TK-10) was 0.4 µM, the GI50 (HCT-15) was 0.25 µM and the MTD [1] was 100 mg/kg. The GI50 (CAKI-1) was 0.2 µM, the GI50 (UO-31) was 0.13 µM and the GI50 (COLO 205) was 0.16 µM. The “IP Score” value ([2]; IP fibers) was 0, the SC score ([2]; SC fibers) was 4 and the GI50 (HL-60(TB)) was 0.04 µM. It also gave a GI50 (RXF 393) of 0.13 µM, a GI50 (MALME-3M) of 0.25 µM and a GI50 (OVCAR-8) of 0.25 µM.
